Like-named read-outs stand apart in the source and are kept apart here.
Experiments:
[1] = set-up: method as in PMID 17504222; conditions: literature value for 2; ref 8a; cited from earlier work
[2] = Liver microsomal stability assay, rat; assay type: in vitro ADME; conditions: rat liver microsomes; for half-life at 0.1 μM: pH 7.4
Protocol: (§1) Liver Microsomal Stability Assay. Microsomes in 0.1 M TRIS buffer pH 7.4 (final concentration 0.33 mg/mL), co-factor MgCl2 (final concentration 5 mM) and tested compound (final concentration 0.1 μM, co-solvent (0.01% DMSO) and 0.005% Bovin serum albumin) were incubated at 37°C for 10min. The reaction was started by the addition of NADPH (final concentration 1 mM). Aliquots were sampled at 0, 7, 17, 30 and 60 min, respectively, and methanol (cold in 4 °C) was added to terminate the […]
(§2) reaction. […]

[3] = Liver microsomal stability assay, human; assay type: in vitro ADME; conditions: for Clint in vitro / half-life at 0.1 μM: human liver microsomes; for half-life at 0.1 μM: pH 7.4
Protocol: as §1, §2

LPS-induced ALI in mice = assay: LPS-induced acute lung injury (ALI) in mice; assay type: in vivo
Protocol: LPS-Induced Acute Lung Injury (ALI) in B6 Mice. Compound 15a was first
dissolved with macrogol 15 hydroxystearate (a nonionic solubilizer for injection from
BASF) with or without medium chain triglycerides (MCT, from BASF) in a water bath
at 37 °C. The concentration of compound was 2 mg/mL. The concentration of
solubilizer was 5−10%, and that for MCT was 0.5−2% in final solution. For the vehicle,
the mixture of solubilizer and MCT was prepared at 10% and 2%, respectively. Mice,
weighing 20−24 g, were randomized to the following three groups of seven animals
each: CON group, LPS group, 15a + LPS group. 15a + LPS group mice were pretreated
with compounds in a water solution (5 mg/kg) by i.v injection 15 min before 5 mg/kg
of LPS was administered by intratracheal instillation. The animals in CON group
received a similar volume of vehicle. After 6 hours, mice were euthanized to collect the
BALF, serum and lung tissue samples. […]
Determination Total Protein Concentration and Number of Neutrophils in BALF.
Bronchoalveolar lavage fluid (BALF) cells and supernatant were separated by
centrifugal separation at 4 °C and 3,000 rpm for 10 minutes. Total protein concentration
in supernatant of BALF was measured using a coomassie blue staining assay kit
according to the manufacturer's instructions. The cells of BALF were resuspended in
40 μL of physiological saline and used for neutrophil cell counts by Wright–Giemsa
Serum Analysis. Blood was collected from mice at sacrifice and was centrifuged at 4
°C and 12,000 rpm for 10 minutes. […]
Real-Time Quantitative PCR. Lung tissues were homogenized in TRIZOL kit
(Invitrogen, Carlsbad, CA) for extraction of RNA according to each manufacturer’s
protocol. Both reverse transcription and quantitative PCR were carried out using a two-
step M-MLV Platinum SYBR Green qPCR SuperMix-UDG kit (Invitrogen, Carlsbad,
CA). Eppendorf Mastercycler ep realplex detection system (Eppendorf, Hamburg,
Germany) was used for RT-qPCR analysis. The primers of genes including TNF-α,
IL-6, IL-1β, ICAM-1, and β-actin were synthesized by Invitrogen. The primer
sequences of mouse genes used are shown as follows:
TNF-α sense primer, 5′-[…]-3
TNF-α antisense primer, 5′-[…]-3′;
IL-6 sense primer, 5′-[…]-3′;
IL-6 antisense primer, 5′-[…]-3′;
IL-1β sense primer, 5′-[…]-3′;
IL-1β antisense primer, 5′-[…]-3′;
ICAM-1 sense primer, 5′-[…]-3′;
ICAM-1 antisense primer, 5′-[…]-3′;
β-actin sense primer, 5′-[…]-3′;
β-actin antisense primer, 5′-[…]-3′.
Statistical Analysis. The results are presented as the mean ±SD. The Student’s t test
was employed to analyze the differences between sets of data. Statistics were performed
using GraphPad Pro (GraphPad, San Diego, CA). P values less than 0.05 (p < 0.05)

[4] = target: T1, hERG potassium ion channel (Homo sapiens, UniProt Q12809); assay: hERG cardiotoxicity assay (manual patch clamp, HEK293); assay type: cell-based; conditions: whole-cell patch clamp, read-out: hERG inhibition IC50
T1 construct: expressed in transfected cells; host or cells: HEK293 (human embryonic kidney cells stably expressing hERG channels)
T1 sequence (Q12809 whole entry): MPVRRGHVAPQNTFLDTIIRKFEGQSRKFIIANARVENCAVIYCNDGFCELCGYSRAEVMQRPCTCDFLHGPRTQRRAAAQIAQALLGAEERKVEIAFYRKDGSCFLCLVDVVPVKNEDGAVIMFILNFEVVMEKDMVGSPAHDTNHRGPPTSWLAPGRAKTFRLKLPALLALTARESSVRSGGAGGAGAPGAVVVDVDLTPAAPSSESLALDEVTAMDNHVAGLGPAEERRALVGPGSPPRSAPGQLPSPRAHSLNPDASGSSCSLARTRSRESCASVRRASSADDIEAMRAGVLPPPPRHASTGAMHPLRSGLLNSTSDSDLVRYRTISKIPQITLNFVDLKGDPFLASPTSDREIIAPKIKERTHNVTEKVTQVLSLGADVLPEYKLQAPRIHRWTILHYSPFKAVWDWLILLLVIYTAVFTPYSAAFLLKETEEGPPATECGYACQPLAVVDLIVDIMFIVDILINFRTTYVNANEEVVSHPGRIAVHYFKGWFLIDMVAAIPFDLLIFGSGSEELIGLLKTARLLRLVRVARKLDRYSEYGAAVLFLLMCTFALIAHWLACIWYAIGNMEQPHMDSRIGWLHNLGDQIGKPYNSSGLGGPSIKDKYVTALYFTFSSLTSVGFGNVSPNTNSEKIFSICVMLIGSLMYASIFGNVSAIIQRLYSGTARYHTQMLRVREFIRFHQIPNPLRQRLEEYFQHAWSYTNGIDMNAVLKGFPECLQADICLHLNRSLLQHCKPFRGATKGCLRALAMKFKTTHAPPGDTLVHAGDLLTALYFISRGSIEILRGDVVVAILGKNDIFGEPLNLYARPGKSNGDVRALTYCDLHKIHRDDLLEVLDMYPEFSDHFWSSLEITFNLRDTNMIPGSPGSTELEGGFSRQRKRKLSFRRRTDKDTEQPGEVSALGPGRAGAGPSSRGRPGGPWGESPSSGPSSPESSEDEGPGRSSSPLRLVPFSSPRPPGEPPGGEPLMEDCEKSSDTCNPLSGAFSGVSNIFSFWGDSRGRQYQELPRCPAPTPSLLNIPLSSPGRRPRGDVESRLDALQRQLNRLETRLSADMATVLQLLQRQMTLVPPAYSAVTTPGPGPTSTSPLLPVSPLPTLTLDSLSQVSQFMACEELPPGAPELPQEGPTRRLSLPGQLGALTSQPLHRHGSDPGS
Protocol: hERG Cardiotoxicity Assay. The human embryonic kidney cells stably expressing hERG channels were used in the study.
vehicle control were delivered separately to the clamped cells by a 6-channel perfusion system. The hERG channel tail currents were recorded by clampex 10.3. The data were collected and analyzed by clampfit 10.3. The peak of the tail currents in the presence of positive control and test article were normalized with the currents recorded in the presence of corresponding vehicle control as 100 %, respectively. The IC50 value was calculated using GraphPad Prism 5.00.

[5] = tested on: LPS-induced TNF-α release; assay: LPS-induced TNF-α release in mouse primary peritoneal macrophages (ELISA); assay type: cell-based; conditions: Peritoneal macrophage, LPS (0.5 μg/mL) 24 h, 30 min pretreatment, read-out: IC50 against the release of TNF-α
Protocol: (§3) Figure S3. Inhibitory activity of the benzo[def]carbazole-3,5-diones against LPS-induced TNF-α and IL-6 secretion in mouse peritoneal macrophages. Macrophages were plated at a density of 5 × 10^5/plate for overnight at 37 °C and in 5% CO2. Cells were pretreated with 5 or tanshinone analogues (10 μM) for 30 min, then treated with LPS (0.5 μg/mL) for 24 h. L6H21 (19) was used as a positive control. TNF-α and IL-6 levels in the culture medium were measured by ELISA and were normalized by the total protein level. The results were presented as the percent of LPS control. Each bar represents the mean ± SD of three independent experiments.
(§4) Statistical significance relative to the LPS group is indicated: ∗ , p < 0.05; ∗∗, p < 0.01.
(§5) (1 picture or pasted object on this page, not shown here)
(§6) Figure S5. […]
(§7) 30 min, then treated with LPS (0.5 μg/mL) for 24 h. IL-6 and TNF-α levels in the culture media were measured by ELISA and were normalized by the total protein. The results were expressed as the percent of LPS. […]
(§8) Determination of TNF-α and IL-6. The levels of TNF-α and IL-6 in medium, bronchoalveolar lavage fluid (BALF) and serum were determined with an ELISA kit (eBioScience, San Diego, CA) according to the manufacturer’s instructions. The total amount of the inflammatory factor in the medium was normalized to the total protein quantity of the viable cell pellets. […]

LPS-induced IL-6 release = LPS-induced IL-6 release in mouse primary peritoneal macrophages (ELISA); assay type: cell-based; conditions: Peritoneal macrophage, LPS (0.5 μg/mL) 24 h, 30 min pretreatment, read-out: IC50 against the release of IL-6
Protocol: as §3, §4, §5, §6, §7, §8

[6] = Tissue distribution after single intravenous administration; assay type: in vivo, SD rats; conditions: iv 2 mg kg^–1, rat
Protocol: Tissue Distribution Assay. Compound 15a (2 mg/kg) dissolved in PEG300/EtOH/NaCl(40/10/50, v/v/v)to a concentration of 0.4 mg/mL, and was […]
given to SD rats (Male, 180–220 g, three groups with three rats in each group) by intravenous administration. Blood samples and the important tissues including heart, liver, lung, kidney, and brain were collected at 0.25, 2 and 12 h after administration (anticoagulant: EDTA-Na2). For plasma samples, 250 μL of solvent of methanol: acetonitrile (1:1, v/v) with internal standard was added to 50 μL of plasma and vortexed thoroughly. For tissue samples, three times the weight of volume of PBS were added, then homogenized. The homogenates were precipitated by five times of methanol: acetonitrile (1:1, v/v) with internal standard. They were centrifuged for 5 min, and then 20 μL of the supernatant was mixed with 20 μL of water for analysis. Samples were analyzed by AB6500 triple quadrupole mass spectrometer (AB Sciex, USA). The ACQUITY UPLC BEH C18 (1.7 μm, 2.0 mm × 50 mm, Waters, USA) was used for the analysis. Gradient elution was applied consisting of ultrapure water containing 0.1% formic acid and acetonitrile containing 0.1% formic acid. […]

[7] = Preliminary pharmacokinetic parameters (p.o. and i.v.); assay type: in vivo; conditions: for MRT inf: read-out: MRTINF_obs
Protocol: Table S4. Preliminary Pharmacokinetic Parameters for Compound 15a a-c
T1/2 Tma Cmax AUC CL_obs MRTINF_obs Vss_obs F […]
aValues are the average of three runs. Vehicle: DMSO, Tween 80, normal saline. CL, clearance; Vss, volume of distribution; T1/2, half-life; Cmax, maximum concentration; Tmax, time of maximum concentration; MRT, mean residence time; AUC, area under the plasma concentration time curve; F, oral bioavailability. bDose: p.o. at 3.0 mg/kg; cDose: i.v. at 1.0

[8] = pretreatment 5 mg kg^–1 i.v., LPS, 6 h

## Cc1coc2c1C(=O)C(=O)c1c-2ccc2c1CCCC2(C)C [Compound 2, tanshinone IIA, reference compound]
[1]
  F (oral bioavailability): < 3.5%
  T1/2: 20.4 min
[2]
  half-life at 0.1 μM: 3.15 min
  Clint in vitro: 666.40 mL min^–1 g^–1 protein
[3]
  Clint in vitro: 277.17 mL min^–1 g^–1 protein
  half-life at 0.1 μM: 7.58 min

## Cc1coc2c1C(=O)c1c3c-2ccc2c3c(n1Cc1ccccc1)C(=O)CC2(C)C [Compound 15a]
LPS-induced ALI in mice; LPS-treated lung tissues, 5 mg/kg i.v.
  mRNA expression of TNF-α, IL-6, IL-1β and ICAM-1 in lung tissue (RT-qPCR): markedly suppressed
LPS-induced ALI in mice; pretreatment 5 mg kg^–1 i.v., 15 min before LPS 5 mg/kg intratracheal, 6 h
  lung wet/dry weight ratio (lung edema): effectively reduced
LPS-induced ALI in mice; pretreatment 5 mg kg^–1 i.v., LPS
  lung macrophage infiltration (CD68 immunostaining): significantly attenuated
LPS-induced ALI in mice; [8]
  histopathological features of lung (H&E): very little histopathological changes
  level of IL-6 in BALF: distinctly suppressed
  level of IL-6 in serum: no significant inhibition
  level of TNF-α in BALF: distinctly suppressed
  level of TNF-α in serum: no significant inhibition
  number of neutrophils in BALF: significantly decreased
  protein concentration in BALF: significantly inhibited
[4]
  IC50: > 40 µM
[2]
  half-life at 0.1 μM: 23.5 min
  Clint in vitro: 89.44 mL min^–1 g^–1 protein
[3]; human and rat microsomes
  enhancement of metabolic stability compared to 2: 4- to 7 fold
[3]
  Clint in vitro: 61.62 mL min^–1 g^–1 protein
  half-life at 0.1 μM: 34.1 min
[5]
  IC50: 6.37 µM
LPS-induced IL-6 release
  IC50: 1620 nM
[6]; 0.25 h
  Concentration in brain: 224 ng g^–1
  Concentration in heart: 992 ng g^–1
  Concentration in heart plasma: 144 ng mL^–1
  Concentration in kidney: 806 ng g^–1
  Concentration in liver: 2557 ng g^–1
  Concentration in lung: 3320 ng g^–1
  Concentration in portal vein plasma: 142 ng mL^–1
[6]; 2 h
  Concentration in brain: 93.9 ng g^–1
  Concentration in heart: 223 ng g^–1
  Concentration in heart plasma: 31.2 ng mL^–1
  Concentration in kidney: 187 ng g^–1
  Concentration in liver: 518 ng g^–1
  Concentration in lung: 847 ng g^–1
  Concentration in portal vein plasma: 33.1 ng mL^–1
[6]; 12 h
  Concentration in brain: 3.11 ng g^–1
  Concentration in heart: 19.8 ng g^–1
  Concentration in heart plasma: 1.90 ng mL^–1
  Concentration in kidney: 33.0 ng g^–1
  Concentration in liver: 57.3 ng g^–1
  Concentration in lung: 633 ng g^–1
  Concentration in portal vein plasma: 2.04 ng mL^–1
  lung drug concentration relative to other tissues: 11 to 300 times
[7]; iv, 1.0 mg/kg
  Vss_obs: 5980 mL/kg
[7]; plasma, iv, 1.0 mg/kg
  AUC: 485 ng·h/mL
  half-life: 300 min
  MRT inf: 2.98 h
[7]; plasma, iv, 1.0 mg/kg, read-out: CL_obs
  clearance: 34.9 mL/min/kg
[7]; plasma, po, 3.0 mg/kg
  AUC: 426 ng·h/mL
  Cmax: 81.2 ng/mL
  MRT inf: 5.33 h
[7]; po 3.0 mg/kg vs iv 1.0 mg/kg
  F (oral bioavailability): 30.2%
[7]; po, 3.0 mg/kg
  T1/2: 4.05 h
  Tma: 1.83 h
